Assays:
[1] = system: response to the pain in mice; test: Tail Flick test (analgesic effect)
[2] = system: response to the pain in mice; test: Hot Plate test (analgesic effect)
[3] = 10 mg/kg i.p., 30 min, formula (I) compounds as formates
[4] = 10 mg/kg i.p., 60 min, formula (I) compounds as formates
[5] = 10 mg/kg i.p., 120 min, formula (I) compounds as formates
[6] = 10 mg/kg i.p., 240 min, formula (I) compounds as formates
[7] = 10 mg/kg i.p., 360 min, formula (I) compounds as formates
[8] = 20 mg/kg i.p., 30 min, as formates
[9] = 20 mg/kg i.p., 60 min, as formates
[10] = 20 mg/kg i.p., 120 min, as formates
[11] = 20 mg/kg i.p., 240 min, as formates
[12] = 20 mg/kg i.p., 360 min, as formates

Which melting point does the source give for `CCC(=O)N1CCC2CCC(C1)N2C/C=C(\C)c1ccccc1` (stereo not shown) [I-Aa] here?
Its melting point is 230 to 232 °C.

And the MPE % [1, 3]?
Its MPE % is 65.5 ± 6.5%.

What about the MPE % [1, 4] of the same compound?
Its MPE % is 20.1 ± 4.1%.

And the MPE % [1, 5]?
Its MPE % is 10.0 ± 1.0%.

What about the MPE % [1, 6] of the same compound?
Its MPE % is 3.1 ± 2.0%.

And the MPE % [1, 7]?
Its MPE % is −3.0 ± 0.5%.

What about the MPE % [2, 3] of the same compound?
The MPE % was 49.5 ± 10.5%.

And the MPE % [2, 4]?
Its MPE % is 25.1 ± 6.1%.

What about the MPE % [2, 5] of the same compound?
The MPE % was 6.0 ± 3.0%.

And the MPE % [2, 6]?
Its MPE % is 3.2 ± 3.0%.

And the MPE % [2, 7]?
The MPE % was 4.1 ± 1.0%.

Which melting point does the source give for `CCC(=O)N1CCC2CCC(C1)N2C/C=C(\C)c1ccc(Cl)c(Cl)c1` (stereo not shown) [I-Ab] here?
The melting point was 188 to 189 °C.

Which melting point does the source give for `CCC(=O)N1CCC2CCC(C1)N2CC=C(c1ccccc1)c1ccccc1` (stereo not shown) [I-Ad] here?
The melting point was 176 to 177 °C.

For `CCC(=O)N1C2CCC1CN(C/C=C(\C)c1ccccc1)CC2` (stereo not shown) [I-Ba], which melting point is on record?
Its melting point is 228 to 230 °C.

And the MPE % [1, 8]?
The MPE % was 89.9 ± 7.0%.

And the MPE % [1, 9]?
Its MPE % is 88.5 ± 10.3%.

And the MPE % [1, 10]?
Its MPE % is 9.0 ± 2.5%.

What about the MPE % [1, 11] of the same compound?
Its MPE % is 2.0 ± 1.1%.

And the MPE % [1, 12]?
The MPE % was −2.0 ± 1.0%.

And the MPE % [2, 8]?
Its MPE % is 68.9 ± 7.2%.

And the MPE % [2, 9]?
The MPE % was 50.5 ± 11.3%.

And the MPE % [2, 10]?
The MPE % was 7.0 ± 2.1%.

And the MPE % [2, 11]?
Its MPE % is 6.0 ± 2.1%.

And the MPE % [2, 12]?
The MPE % was −4.0 ± 2.0%.

Which melting point does the source give for `CCC(=O)N1C2CCC1CN(C/C=C(\C)c1ccc(Cl)c(Cl)c1)CC2` (stereo not shown) [I-Bb] here?
Its melting point is 186 to 188 °C.

Which melting point does the source give for `CCC(=O)N1C2CCC1CN(CC=C(c1ccccc1)c1ccccc1)CC2` (stereo not shown) [I-Bd] here?
Its melting point is 184 to 186 °C.

Which melting point does the source give for `CCC(=O)N1CCC2CCCC(C1)N2C/C=C(\C)c1ccccc1` (stereo not shown) [I-Ca] here?
The melting point was 106 to 108 °C.

For `CCC(=O)N1CCC2CCCC(C1)N2C/C=C(\C)c1ccc(Cl)c(Cl)c1` (stereo not shown) [I-Cb], which melting point is on record?
Its melting point is 184 to 185 °C.

With `CCC(=O)N1CCC2CCCC(C1)N2CC=C(c1ccccc1)c1ccccc1` (stereo not shown) [I-Cc] as the compound, how does the melting point read?
The melting point was 137 to 139 °C.

And the MPE % [1, 8]?
The MPE % was 80.2 ± 7.5%.

What about the MPE % [1, 9] of the same compound?
The MPE % was 52.9 ± 8.1%.

What about the MPE % [1, 10] of the same compound?
Its MPE % is 42.1 ± 8.3%.

And the MPE % [1, 11]?
The MPE % was 14.6 ± 3.0%.

And the MPE % [1, 12]?
Its MPE % is 0.0 ± 0.8%.

What about the MPE % [2, 8] of the same compound?
The MPE % was 55.2 ± 10.5%.

What about the MPE % [2, 9] of the same compound?
The MPE % was 40.9 ± 7.8%.

What about the MPE % [2, 10] of the same compound?
The MPE % was 24.1 ± 7.3%.

And the MPE % [2, 11]?
The MPE % was 5.0 ± 4.0%.

What about the MPE % [2, 12] of the same compound?
Its MPE % is 0.1 ± 1.1%.

For `CCC(=O)N1C2CCCC1CN(C/C=C(\C)c1ccccc1)CC2` (stereo not shown) [I-Da], which melting point is on record?
The melting point was 144 to 146 °C.

With `CCC(=O)N1C2CCCC1CN(C/C=C(\C)c1ccc(Cl)c(Cl)c1)CC2` (stereo not shown) [I-Db] as the compound, how does the melting point read?
The melting point was 175 to 176 °C.

Which melting point does the source give for `CCC(=O)N1C2CCCC1CN(CC=C(c1ccccc1)c1ccccc1)CC2` (stereo not shown) [I-Dc] here?
The melting point was 169 to 170 °C.

With `CN1CC[C@]23c4c5ccc(O)c4O[C@H]2[C@@H](O)C=C[C@H]3[C@H]1C5` [Morphine, reference compound] as the compound, how does the MPE % [1, 4] read?
Its MPE % is 60.5 ± 6.8%.

What about the MPE % [1, 5] of the same compound?
The MPE % was 39.6 ± 4.0%.

What about the MPE % [1, 6] of the same compound?
Its MPE % is 19.1 ± 3.0%.

And the MPE % [1, 7]?
The MPE % was 6.1 ± 1.1%.

Source: US8399457B2, “Pharmaceutical compounds” (Neuroscienze Pharmaness S.C. A.R.L., priority 2008, dated 2013)
